# Measured values taken from ChEMBL document CHEMBL1147428, “A new class of potent non-imidazole H(3) antagonists: 2-aminoethylbenzofurans” (Bioorg Med Chem Lett, 2004).
# pKi: −log10 of the molar value.
# Experiments:
# Histamine H3 receptor [1] = molecular target: T1, Histamine H3 receptor (Rattus norvegicus, UniProt Q9QYN8); experiment: Binding potency was determined by displacement of [3H]N-alpha-methyl histamine from histamine H3 receptor of rat cortical membranes; assay type: cell membranes, Membrane
# Histamine H3 receptor [2] = molecular target: Histamine H3 receptor (Homo sapiens, UniProt Q9Y5N1); experiment: Binding potency was determined by displacement of [3H]N-alpha-methyl histamine from cloned human histamine H3 receptor expressed in C6 cells; assay type: cell-based
# Histamine H3 receptor [3] = molecular target: T1, Histamine H3 receptor; experiment: Binding potency by displacement of [3H]N-alpha-methyl histamine from histamine H3 receptor of rat cortical membranes; assay type: cell membranes, Membrane
# Histamine H3 receptor [4] = molecular target: T1, Histamine H3 receptor; experiment: pBinding potency by displacement of [3H]N-alpha-methyl histamine from histamine H3 receptor of rat cortical membranes; assay type: cell membranes, Membrane
# Chain of Histamine H3 receptor (Homo sapiens, UniProt Q9Y5N1) (Q9Y5N1 whole entry): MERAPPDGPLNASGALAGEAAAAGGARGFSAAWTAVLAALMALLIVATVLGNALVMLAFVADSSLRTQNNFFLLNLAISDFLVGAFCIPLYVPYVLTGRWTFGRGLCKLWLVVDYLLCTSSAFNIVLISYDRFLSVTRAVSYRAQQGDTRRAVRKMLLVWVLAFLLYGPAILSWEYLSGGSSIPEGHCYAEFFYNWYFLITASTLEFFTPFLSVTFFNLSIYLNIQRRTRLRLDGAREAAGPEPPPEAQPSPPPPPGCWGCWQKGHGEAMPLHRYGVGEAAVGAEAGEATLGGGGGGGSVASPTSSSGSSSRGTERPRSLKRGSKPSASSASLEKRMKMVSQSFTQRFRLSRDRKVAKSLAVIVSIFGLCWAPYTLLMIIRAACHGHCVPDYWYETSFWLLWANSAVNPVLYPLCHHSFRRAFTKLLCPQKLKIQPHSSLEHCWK
# T1 sequence (Q9QYN8 whole entry): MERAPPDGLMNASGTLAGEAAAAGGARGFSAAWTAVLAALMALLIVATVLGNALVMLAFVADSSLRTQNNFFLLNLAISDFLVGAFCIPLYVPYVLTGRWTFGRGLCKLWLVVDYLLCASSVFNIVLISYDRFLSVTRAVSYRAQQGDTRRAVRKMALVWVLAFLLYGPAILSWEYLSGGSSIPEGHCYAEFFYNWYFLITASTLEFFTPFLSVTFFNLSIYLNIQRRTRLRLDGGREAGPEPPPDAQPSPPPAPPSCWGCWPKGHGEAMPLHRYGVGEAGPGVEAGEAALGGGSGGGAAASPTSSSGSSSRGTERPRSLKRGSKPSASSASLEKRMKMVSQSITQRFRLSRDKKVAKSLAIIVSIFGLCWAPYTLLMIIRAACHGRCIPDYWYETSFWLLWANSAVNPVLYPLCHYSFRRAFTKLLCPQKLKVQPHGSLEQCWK
pKi (Histamine H3 receptor [1]),pKi (Histamine H3 receptor [2]),pKi (Histamine H3 receptor [3]),pKi (Histamine H3 receptor [4]),SMILES
8.16,8.72,–,–,O=C(c1ccc(-c2ccc3oc(CCN4CCC[C@H]4CO)cc3c2)cc1)N1CCOCC1
6.96,7.44,–,–,O=C(c1ccc(-c2ccc3oc(CCN4CCC[C@@H]4CO)cc3c2)nc1)N1CCOCC1
–,8.06,–,–,N#Cc1ccc(-c2ccc3oc(CCN4CCCCC4)cc3c2)cc1
–,8.66,–,–,C[C@@H]1CC[C@@H](C)N1CCc1cc2cc(-c3ccc(C(=O)N4CCOCC4)cc3)ccc2o1
–,6.22,–,–,N#Cc1ccc(-c2ccc3oc(CCn4ccnc4)cc3c2)cc1
8.21,8.64,–,–,O=C(c1ccc(-c2ccc3oc(CCN4CCCCC4)cc3c2)cc1)N1CCOCC1
–,8.11,–,–,N#Cc1ccc(-c2ccc3oc(CCN4CCCCCC4)cc3c2)cc1
8.80,9.26,–,–,C[C@@H]1CCCN1CCc1cc2cc(-c3ccc(C(=O)N4CCOCC4)cn3)ccc2o1
7.35,8.25,7.35,–,C[C@@H]1CCC[C@H](C)N1CCc1cc2cc(-c3ccc(C(=O)N4CCOCC4)cn3)ccc2o1
7.80,7.82,–,–,CC1CCN(CCc2cc3cc(-c4ccc(C#N)cc4)ccc3o2)CC1
6.80,7.35,–,–,O=C(c1ccc(-c2ccc3oc(CCN4CCOCC4)cc3c2)cc1)N1CCOCC1
7.85,8.52,–,–,CC1CCCCN1CCc1cc2cc(-c3ccc(C(=O)N4CCOCC4)cc3)ccc2o1 (stereo unspecified)
–,7.92,–,–,O=C(c1ccc(-c2ccc3oc(CCN4CCC(O)C4)cc3c2)nc1)N1CCOCC1 (stereo unspecified)
–,8.46,–,–,O=C(c1ccc(-c2ccc3oc(CCN4CCCCCC4)cc3c2)cc1)N1CCOCC1
7.54,8.41,–,–,O=C(c1ccc(-c2ccc3oc(CCN4CCCC4)cc3c2)nc1)N1CCOCC1
7.31,7.92,–,–,O=C(c1ccc(-c2ccc3oc(CCN4CCCCC4)cc3c2)nc1)N1CCOCC1
8.71,9.15,–,8.70,C[C@@H]1CCCN1CCc1cc2cc(-c3ccc(C(=O)N4CCOCC4)cc3)ccc2o1
–,7.74,–,–,N#Cc1ccc(-c2ccc3oc(CCN4CCC[C@@H]4CO)cc3c2)cc1

pKi (Histamine H3 receptor [1]),pKi (Histamine H3 receptor [2]),pKi (Histamine H3 receptor [3]),pKi (Histamine H3 receptor [4]),SMILES
–,8.24,–,–,CC1CCCCN1CCc1cc2cc(-c3ccc(C#N)cc3)ccc2o1 (stereo unspecified)
5.80,6.49,–,–,N#Cc1ccc(-c2ccc3oc(CCN4CCC[C@@H]4CC(=O)O)cc3c2)cc1
7.38,8.29,–,–,C[C@@H]1CC[C@@H](C)N1CCc1cc2cc(-c3ccc(C#N)cc3)ccc2o1
6.82,7.06,–,–,CC1CCN(CCc2cc3cc(-c4ccc(C(=O)N5CCOCC5)cn4)ccc3o2)CC1
7.77,8.23,–,–,O=C(c1ccc(-c2ccc3oc(CCN4CC=CCC4)cc3c2)cc1)N1CCOCC1
7.59,8.23,–,–,C[C@@H]1CC[C@@H](C)N1CCc1cc2cc(-c3ccc(C(=O)N4CCOCC4)cn3)ccc2o1
7.30,8.00,–,–,N#Cc1ccc(-c2ccc3oc(CCN4CC=CCC4)cc3c2)cc1
7.02,8.06,–,–,N#Cc1ccc(-c2ccc3oc(CCN4CCC(O)C4)cc3c2)cc1 (stereo unspecified)
7.48,7.80,–,–,O=C(c1ccc(-c2ccc3oc(CCN4CCCCCC4)cc3c2)nc1)N1CCOCC1
6.59,–,–,–,O=C(c1ccc(-c2ccc3oc(CCN4CCOCC4)cc3c2)nc1)N1CCOCC1
–,7.77,–,–,CC1CCN(CCc2cc3cc(-c4ccc(C(=O)N5CCOCC5)cc4)ccc3o2)CC1
7.20,7.80,–,–,CN(C)[C@@H]1CCN(CCc2cc3cc(-c4ccc(C#N)cc4)ccc3o2)C1
6.85,7.31,–,–,CN(C)[C@H]1CCN(CCc2cc3cc(-c4ccc(C#N)cc4)ccc3o2)C1
7.66,8.62,–,–,C[C@@H]1CCC[C@H](C)N1CCc1cc2cc(-c3ccc(C#N)cc3)ccc2o1
7.46,8.21,–,–,O=C(c1ccc(-c2ccc3oc(CCN4CC[C@@H](O)C4)cc3c2)cc1)N1CCOCC1
8.18,8.92,–,–,C[C@@H]1CCC[C@H](C)N1CCc1cc2cc(-c3ccc(C(=O)N4CCOCC4)cc3)ccc2o1
–,8.66,–,–,N#Cc1ccc(-c2ccc3oc(CCN4CCC[C@H]4CO)cc3c2)cc1
